The supplement of paper PMC6580486

Tests used:
PCB490-3 = tested on: PCB490-3 (human epithelioid sarcoma primary culture)
Method: (§1)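 Roche open-access kinase inhibitor screen (223 compounds) on human epithelioid sarcoma primary cultures from three spatially distinct regions of tumor PCB490. 384-well plates, 72 h, CellTiter-Glo viability; IC50 by Hill curve fit. 100000 nM = no IC50 reached. Compound ids carry a plate-well prefix, which is stripped.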

PCB490-4 = tested on: PCB490-4 (human epithelioid sarcoma primary culture)
Method: as §1

PCB490-5 = tested on: PCB490-5 (human epithelioid sarcoma primary culture)
Method: as §1

| SMILES | IC50 cell viability (U23674) | other results |
| --- | --- | --- |
| O=C1NC(=N[C@H](CO)c2ccccc2)S/C1=C\c1ccc2ncccc2c1 | – | IC50 cell viability (PCB490-3): > 100 µM; IC50 cell viability (PCB490-4): > 100 µM; IC50 cell viability (PCB490-5): > 100 µM |
| O=C1NC(=NCCc2ccccc2F)S/C1=C\c1ccc2ncccc2c1 | – | IC50 cell viability (PCB490-3): > 100 µM; IC50 cell viability (PCB490-4): > 100 µM; IC50 cell viability (PCB490-5): > 100 µM |
| COc1ccccc1CCN=C1NC(=O)/C(=C/c2ccc3ncccc3c2)S1 | – | IC50 cell viability (PCB490-3): > 100 µM; IC50 cell viability (PCB490-4): > 100 µM; IC50 cell viability (PCB490-5): > 100 µM |
| Cn1cc(C2=C(c3cn(C)c4ccc(OCc5ccccc5)cc34)C(=O)NC2=O)c2ccccc21 | – | IC50 cell viability (PCB490-3): > 100 µM; IC50 cell viability (PCB490-4): > 100 µM; IC50 cell viability (PCB490-5): > 100 µM |
| O=C1NC(=NCc2cccs2)O/C1=C\c1ccc2ncccc2c1 | – | IC50 cell viability (PCB490-3): > 100 µM; IC50 cell viability (PCB490-4): > 100 µM; IC50 cell viability (PCB490-5): > 100 µM |
| Cn1c(=O)c(Oc2ccc(F)cc2F)cc2cnc(NC3CCC(O)CC3)nc21 (stereo not drawn) | – | IC50 cell viability (PCB490-3): > 100 µM; IC50 cell viability (PCB490-4): > 100 µM; IC50 cell viability (PCB490-5): > 100 µM |
| COc1ccccc1C(=O)c1cnc(NC2CCN(S(C)(=O)=O)CC2)nc1N | – | IC50 cell viability (PCB490-3): > 100 µM; IC50 cell viability (PCB490-4): > 100 µM; IC50 cell viability (PCB490-5): > 100 µM |
| Cc1ccc2c(c1)c(C1=C(c3cn(C)c4ccccc34)C(=O)NC1=O)cn2C | – | IC50 cell viability (PCB490-3): > 100 µM; IC50 cell viability (PCB490-4): > 100 µM; IC50 cell viability (PCB490-5): > 100 µM |
| CNCC1CCn2c(c(C3=C(c4cn(C)c5ccccc45)C(=O)NC3=O)c3ccccc32)C1 (stereo not drawn) | – | IC50 cell viability (PCB490-3): 0.89 µM; IC50 cell viability (PCB490-4): > 100 µM; IC50 cell viability (PCB490-5): > 100 µM |
| O=C1NC(=NCc2ccccc2)S/C1=C\c1ccc2ncccc2c1 | – | IC50 cell viability (PCB490-3): > 100 µM; IC50 cell viability (PCB490-4): > 100 µM; IC50 cell viability (PCB490-5): > 100 µM |
| CS(=O)(=O)CCNCc1ccoc1-c1ccc2ncnc(Nc3ccc(OCc4ccccc4)cc3)c2c1 | > 10 µM | – |
| Nc1nc(-c2ccccn2)c(-c2ccc3ncccc3n2)s1 | > 10 µM | – |
| CCN1CCC(CC(=O)Nc2n[nH]c3nc(-c4cccs4)c(Br)cc23)CC1 | 1.3 µM | – |
| COc1ccc(C2=C(N3CCc4ccccc43)C(=O)NC2=O)cc1 | > 10 µM | – |
| COc1cc2ncn(-c3cc(OCc4ccccc4Cl)c(C(N)=O)s3)c2cc1OC | > 10 µM | – |
| COc1ccc(-c2nn3ncccc3c2-c2ccnc(Nc3ccc(F)c(F)c3)n2)cc1 | > 10 µM | – |
| COc1ccc(CNC(=O)c2ccc(-c3cc(-c4nnc(C)o4)ccc3C)cc2)cc1 | > 10 µM | – |
| O=C1Nc2ccc(-c3cccnc3)cc2C1=Cc1cc(Br)c(O)c(Br)c1 | > 10 µM | – |
| COC(=O)Nc1nc2ccc(Oc3ccc(NC(=O)Nc4cccc(C(=O)O)c4)cc3)cc2[nH]1 | > 10 µM | – |
| CCCN1CCC(c2ccc(Nc3nc(Nc4cc(F)ccc4C(N)=O)c4cc[nH]c4n3)c(OC)c2)CC1 | > 10 µM | – |
| NS(=O)(=O)c1ccc(N=Nc2c(O)[nH]c3ccc(C(=O)NCCc4cnc[nH]4)cc23)cc1 | > 10 µM | – |
| Nc1nonc1-c1nc2cnccc2n1C1CC1 | > 10 µM | – |

| SMILES | IC50 cell viability (U23674) | other results |
| --- | --- | --- |
| Cc1ccc2c(-c3ccnc(Nc4cccc(C(F)(F)F)c4)n3)c(-c3ccccc3)nn2n1 | > 10 µM | – |
| COc1cc2c(cc1Nc1nc(N3CCc4ccccc43)c3cc[nH]c3n1)N(C(=O)CN(C)C)CC2 | 0.05 µM | – |
| COC(=O)Nc1nc2ccc(Oc3ccc(NC(=O)Nc4ccccc4)cc3)cc2[nH]1 | > 10 µM | – |
| CS(=O)(=O)CCNCc1ccc(-c2ccc3ncnc(Nc4ccc(OCc5ccccc5)c(C(F)(F)F)c4)c3c2)o1 | > 10 µM | – |
| NS(=O)(=O)c1ccc(N=Nc2c(O)[nH]c3cccc(CCc4ccncc4)c23)cc1 | > 10 µM | – |
| COc1ccc(-c2nn3ncccc3c2-c2ccnc(Nc3ccc(Cl)c(C(F)(F)F)c3)n2)cc1 | > 10 µM | – |
| CCc1cccc(CC)c1/C=C/c1cncc(C(=O)NC)c1 | > 10 µM | – |
| Cn1cc(C=C2C(=O)Nc3cccnc32)c2ccccc21 | > 10 µM | – |
| NS(=O)(=O)c1cccc(-c2ccc3c(NC(=O)C4CC4)n[nH]c3c2)c1 | > 10 µM | – |
| Cc1ccc2c(-c3ccnc(Nc4ccccc4)n3)c(-c3ccc(F)cc3)nn2n1 | > 10 µM | – |
| Nc1ncnc2occ(-c3ccc(NC(=O)Nc4cc(C(F)(F)F)ccc4F)cc3)c12 | > 10 µM | – |
| Fc1ccc(-c2nn3ccccc3c2-c2ccncc2)cc1 | > 10 µM | – |
| Cc1cccc(-c2[nH]ncc2-c2ccc3ncccc3n2)n1 | > 10 µM | – |
| c1cc(-c2cnn3nc(N4CCOCC4)ccc23)nc(NC2CC2)n1 | > 10 µM | – |
| Cc1nnc(-c2cccc(-c3ccc(C(=O)NCC4CC4)cc3)c2)o1 | > 10 µM | – |
| COC(=O)Nc1nc2ccc(Sc3ccc(NC(=O)Nc4cc(C(F)(F)F)ccc4F)cc3)cc2[nH]1 | > 10 µM | – |
| CCS(=O)(=O)c1ccc(OC)c(Nc2ncc(-c3ccccc3Cl)o2)c1 | > 10 µM | – |
| Nc1ccc(C#Cc2cncnc2Nc2ccc(OCc3cccc(F)c3)c(Cl)c2)cc1 | > 10 µM | – |
| N#Cc1ccc2c(-c3ccnc(NC4CC4)n3)c(-c3ccc(F)cc3)nn2c1 | > 10 µM | – |
| NC(=O)c1sc(-n2cnc3cc(C(F)(F)F)ccc32)cc1OCc1ccccc1Br | > 10 µM | – |
| CCCN1CCCC(c2ccc(Nc3nc(Nc4cc(F)ccc4C(N)=O)c4cc[nH]c4n3)c(OC)c2)C1 (stereo not drawn) | 1.4 µM | – |
| COc1ccc2[nH]c3c4[nH]c5ccc(OC)cc5c4c4c(c3c2c1)C(=O)NC4=O | > 10 µM | – |

| SMILES | IC50 cell viability (U23674) | other results |
| --- | --- | --- |
| O=C(OC1CNC(C#Cc2cc3ncnc(Nc4ccc5c(ccn5Cc5cc(F)ccc5F)c4)c3s2)C1)N1CCOCC1 (stereo not drawn) | > 10 µM | – |
| C#Cc1cccc(Nc2ncnc3ccc(OCCCCNCCS(C)(=O)=O)cc23)c1 | 4.9 µM | – |
| CCOc1ccc2c(-c3ccnc(Nc4cc(OC)cc(C(F)(F)F)c4)n3)cnn2n1 | > 10 µM | – |
| CCn1c(-c2nonc2N)nc2c(C#CC(C)(C)O)nc(CN3CCCC3)cc21 | > 10 µM | – |
| CNC(=O)c1sc(-n2cnc3cc(OC)c(OC)cc32)cc1OCc1ccccc1C(F)(F)F | > 10 µM | – |
| CC1=C(C(=O)Nc2cc(Cl)c3[nH]ncc3c2)C(c2ccc(C(F)(F)F)cc2)CC(=O)N1 (stereo not drawn) | > 10 µM | – |
| CCS(=O)(=O)c1ccc(OC)c(Nc2nccc(N(C)c3ccc4c(C)[nH]nc4c3)n2)c1 | > 10 µM | – |
| CCN1CCC(CC(=O)Nc2n[nH]c3nnc(-c4cccc(F)c4F)cc23)CC1 | 5.1 µM | – |
| COC(=O)c1cncc(/C=C/c2c(C)cc(O)cc2C)c1 | > 10 µM | – |
| COc1ccc(COc2ccc(Cc3cnc(N)nc3N)cc2OC)cc1 | > 10 µM | – |
| COc1cc(/C=N/Nc2ncnc3c2cnn3C(C)C)ccc1O | > 10 µM | – |
| O=C(Nc1ccc(Oc2ccc3nc(NC(=O)c4ccco4)[nH]c3c2)cc1)Nc1cc(C(F)(F)F)ccc1F | > 10 µM | – |
| Fc1cccc(COc2ccc(Nc3ncncc3C#Cc3ccccc3)cc2Cl)c1 | > 10 µM | – |
| NS(=O)(=O)c1ccc(-c2cc3ccncc3cc2OCc2ccccc2)cc1 | > 10 µM | – |
| O=C1NC(=O)C(c2ccc(Cl)cc2)=C1Nc1ccc(Cl)c(C(=O)O)c1 | 3.9 µM | – |
| NC(=O)c1sc(-n2cnc3ccccc32)cc1OCc1ccccc1Br | > 10 µM | – |
| FC(F)(F)CNc1nccc(-c2cnn3ncccc23)n1 | 4.4 µM | – |
| CN(c1ccc(NC(=O)Nc2c(Cl)cccc2Cl)cc1)c1ccnc(Nc2cccc(CS(C)(=O)=O)c2)n1 | > 10 µM | – |
| COc1cccc(COc2cc(-n3cnc4ccccc43)sc2C(N)=O)c1 | > 10 µM | – |
| COc1cc2ncn(-c3cc(O[C@@H](C)c4ccccc4Cl)c(C(N)=O)s3)c2cc1OC | > 10 µM | – |
| COc1cc2ncn(-c3cc(OCc4ccccc4C(F)(F)F)c(C(C)=O)s3)c2cc1OC | > 10 µM | – |
| Cc1ccc(C(=O)NC2CC2)cc1-c1ccc2[nH]ncc2c1 | > 10 µM | – |

| SMILES | IC50 cell viability (U23674) | other results |
| --- | --- | --- |
| CN(C)CCOc1ccc(-c2cc(-c3ccc4c(c3)CCC4=NO)c(-c3ccncc3)o2)cc1 | > 10 µM | – |
| O=C1Nc2ccc(I)cc2C1=Cc1cc(Br)c(O)c(Br)c1 | > 10 µM | – |
| Cc1cc(-c2ccco2)cc(C)c1/C=C/c1cncc(-c2nn[nH]n2)c1 | > 10 µM | – |
| N#Cc1cccc(Nc2nccc(-c3cnn4ncccc34)n2)c1 | 0.05 µM | – |
| OCc1ccc(-c2nc(-c3ccc4c(c3)OCO4)c(-c3ccccn3)[nH]2)cc1 | > 10 µM | – |
| Cn1c(-c2nonc2N)nc2cnccc21 | > 10 µM | – |
| CC(=O)NCc1cccc(C#Cc2cncnc2Nc2ccc(OCc3cccc(F)c3)c(Cl)c2)c1 | > 10 µM | – |
| CCn1c(-c2nonc2N)nc2c(C#CC(C)(C)O)nc(OC[C@@H](N)c3ccccc3)cc21 | > 10 µM | – |
| N#Cc1ccc(Oc2nccc(-c3c(-c4ccc(F)cc4)ncn3C3CCNCC3)n2)cc1 | > 10 µM | – |
| COc1cc(Nc2ncc(-c3ccccc3)o2)cc(OC)c1OC | > 10 µM | – |
| COc1cccc(Nc2nccc(-c3cnn4ncccc34)n2)c1 | 0.01 µM | – |
| NC(=O)c1ccc(Oc2nccc(-c3c(-c4ccc(F)cc4)ncn3C3CCNCC3)n2)cc1 | > 10 µM | – |
| Cc1ccc(C(=O)NC2CCCCC2)cc1-c1ccc(C(=O)NCC2CC2)cc1 | > 10 µM | – |
| NS(=O)(=O)c1cccc(Nc2cc(-c3ccc(F)cc3)[nH]n2)c1 | > 10 µM | – |
| O=C(Nc1ccc(Oc2ccc3nc(NC(=O)c4ccccc4)[nH]c3c2)cc1)Nc1cc(C(F)(F)F)ccc1F | > 10 µM | – |
| O=C(O[C@H]1CN[C@H](C#Cc2cc3ncnc(Nc4ccc(OCc5cccc(F)c5)c(Cl)c4)c3s2)C1)N1CCOCC1 | > 10 µM | – |
| Clc1ccc(CNc2nccc(-c3cnn4ncccc34)n2)cc1 | > 10 µM | – |
| NC(=O)c1cc(-c2ccncc2)cc(-c2ccccc2)c1N | > 10 µM | – |
| Cc1ccc(Nc2ccnc(Nc3cccc(C(N)=O)c3)n2)cc1O | > 10 µM | – |
| Clc1ccc(-c2nn3ncccc3c2-c2ccnc(Nc3ccccc3)n2)cc1 | > 10 µM | – |
| CC(=O)Nc1cccc(C#Cc2cncnc2Nc2ccc(OCc3cccc(F)c3)c(Cl)c2)c1 | > 10 µM | – |
| COc1cc2ncn(-c3cc(OCc4ccccc4C(F)(F)F)c(C(N)=O)s3)c2cc1OC | > 10 µM | – |
